From US6812015B1, “Histidine protein-phosphatase” (Merck Patent Gesellschaft, priority 1999, dated 2004)
Where two headings read alike, the source gives them in different places.

What was measured:
histidine phosphatase = assay: Reagents affecting histidine phosphatase activity (dephosphorylation of 32P-CheA); type: biochemical, rabbit
Method: (§1) The activity of the soluble histidine phosphatase is determined from the dephosphorylation of ^32P-labelled histidine-phosphorylated protein (CheA) as substrate. CheA is a recombinant bacterial histidine autokinase (Bilwes A M, Alex L A, Crane B R, Simon M I (1999) Cell 96:131-141); the C-terminal kinase domain phosphorylates the N-terminal His48. […] Detection on the one hand via ammonium molybdate, and on the other hand by autoradiography (FIG. 2).
(§2) The substrate (10 μl of ^32P-CheA) is mixed with […] of assay buffer (100 mM triethanolamine/hydrochloric acid pH 8.0, 0.1% 2-mercaptoethanol, 0.02% sodium nitrite) and the enzyme solution. The reaction takes place at 37° C. in 30 min. […] After a centrifugation (5 min at 15,800 g), the supernatant is removed and measured in a scintillation counter.

[1] = target: histidine protein phosphatase purified from rabbit liver (rabbit) (UniProt P83468); assay: cell-based or functional assay
[2] = system: histidine protein phosphatase; assay: Hydrolysis of substrates by the novel histidine protein phosphatase (specificity); type: biochemical, rabbit
Method: as §1, §2

[3] = target: [gamma-32P] His-nucleoside diphosphate kinase
[4] = target: 32P-labelled histidine-phosphorylated CheA (recombinant bacterial histidine autokinase)
[5] = target: [gamma-32P] Ser/Thr-Casein
[6] = type: physicochemical, rabbit; conditions: in the crude homogenate and in the partially purified fractions

With [Ca+2] [Ca^2+] the “Activity (%)” value (histidine phosphatase; reagent concentration 1 mM) was 165% and the “Activity (%)” value (histidine phosphatase; reagent concentration 10 mM) was 240%.

In the case of CO[C@H]([C@H](O)CC(=O)[C@@H](C)[C@@H](O)CC[C@@H](C)[C@@H]1O[C@]2(CC[C@@H](C)[C@H](CC[C@H](C)C(C)=O)O2)CC[C@@H]1C)[C@H](OC(=O)C[C@@H](O)C1=C(C)C(=O)OC1=O)C(C)C [Tautomycin], the “Activity (%)” value (histidine phosphatase; reagent concentration 0.5 nM) is reported as 90%.

With [Mg+2] [Mg^2+] the “Activity (%)” value (histidine phosphatase; reagent concentration 1 mM) was 142% and the “Activity (%)” value (histidine phosphatase; reagent concentration 10 mM) was 226%.

For [O]=[Mo](=[O])([O-])[O-] [Molybdate], the “Activity (%)” value (histidine phosphatase; 10 µM) was 71%.

With Inhibitor protein I1 the Activity (%) of histidine phosphatase with 1 nM reagent [1] was 120%.

In the case of C=C1[C@@H](O)[C@@H]2O[C@]3(CC[C@H](/C=C/[C@@H](C)[C@@H]4CC(C)=C[C@@]5(O[C@H](C[C@@](C)(O)C(=O)O)CC[C@H]5O)O4)O3)CC[C@H]2O[C@@H]1[C@@H](O)C[C@H](C)[C@H]1O[C@@]2(CCCCO2)CC[C@H]1C [Okadaic acid], the “Activity (%)” value (histidine phosphatase; reagent concentration 10 μM) is reported as 108% and the “Inhibition of histidine phosphatase activity” value (histidine phosphatase; text statement referring to Table 2) is reported as “not being inhibited”.

In the case of O=C(O)CN(CCOCCOCCN(CC(=O)O)CC(=O)O)CC(=O)O [EGTA], the “Activity (%)” value (histidine phosphatase; reagent concentration 5 mM) is reported as 91%.

With [O]=[V]([O-])([O-])[O-] [Vanadate] the “Inhibition of histidine phosphatase activity” value (histidine phosphatase) was “not being inhibited” and the “Activity (%)” value (histidine phosphatase; 10 µM) was 62%.

With Microcystin the “Activity (%)” value (histidine phosphatase; 0.005 µM) was 110%.

In the case of O=[N+]([O-])c1ccc(OP(=O)(O)O)cc1 [p-nitrophenyl phosphate], the “Hydrolysis by the histidine phosphatase” value [2] is reported as “did not hydrolyze”.

B1: histidine protein phosphatase purified from rabbit liver (protein)
chain: AAAGLAQIPDVDIDSDGVFKYVLIRVHAAPPSEAPGGESKDIVRGYKWAEYHADIYDKVSGELQKKGHDCECLGGGRISHQSQDRKIHVYGYSMGYGRAQHSVSTEKIRAKYPDYEVTWADDGY
With B1 the “Hydrolysis by the novel histidin protein phosphatase” value [3] was “-”, the “Hydrolysis by the novel histidin protein phosphatase” value [4] was “+” and the “histidine dephosphorylation of 32P-phosphorylated CheA” value [4] was “The purified protein shows time-, temperature-, pH- and protein-dependent histidine dephosphorylation of the 32P-phosphorylated CheA”. The “Hydrolysis by the novel histidin protein phosphatase” value [5] was “-” and the storage stability [6] was “shows storage stability”.
